Reference: US11845770B2, “Ascaroside derivatives and methods of use” (California Institute of Technology, priority 2019, dated 2023)
Entries after “also recorded” stand apart in the source; their conditions may differ.

Legend:
[1] = tested on: EPC2 human esophageal keratinocytes; assay: Stimulation of EPC2-hTERT human esophageal keratinocytes with Poly(I:C); assay type: cell-based; conditions: 24 hours, increasing concentrations
Description: EPC2-hTERT (EPC2) cells were maintained in supplemented keratinocyte serum-free medium (KSFM) with 0.09 mM calcium chloride containing epidermal growth factor (5 ng/mL), bovine pituitary extract ([…]), penicillin (100 units/mL), and streptomycin ([…]) (ThermoFisher #17005042) at 37° C. with 5% (v/v) CO2. EPC2 cells were seeded in 12-well plates at 0.55×10^6 cells per well in supplemented KSFM at 37° C. with 5% (v/v) CO2 and after 6 hours the old media is removed and changed with fresh media. After overnight incubation, the old media is changed to supplemented KSFM containing 1.8 mM calcium chloride and incubated for 72 hours at 37° C. with 5% (v/v) CO2. After the old media is removed and fresh supplemented KSFM containing 1.8 mM calcium chloride is added, the cells are pre-treated with different concentrations of compounds (0, 1, 10, 100, 500, 1000 μM) for 1 hour prior to stimulation. To stimulate the cells, Poly (I:C) (Tocris #4287) is added to the wells at […] concentration without removing the media and incubated for 24 hours at 37° C. with 5% (v/v) CO2. Supernatants are collected in Eppendorf tubes, centrifuged in a microfuge at maximum speed for 10 minutes at 4° C., and the centrifuged supernatants stored at −80° C. until quantitative detection assays are performed. Human Interleukin-6 (IL-6), Monocyte Chemoattractant Protein-1 (MCP-1), and Thymic stromal lymphopoietin (TSLP) released from supernatants collected post stimulation were measured using the AlphaLISA detection kit for human IL-6, MCP-1, and TSLP, respectively.

[2] = Plasma protein binding, HT-Dialysis (rat); assay type: in vitro ADME; conditions: pH 7.4, dialysis 4 hours, read-out: percent unbound
Description: HT-Dialysis plate (Model HTD 96 b, Cat #1006) and the dialysis membrane (molecular weight cut off 12-14 KDa, Cat #1101) can be purchased from HT Dialysis LLC (Gales Ferry, CT).
The plasma was thawed under running cold tap water and centrifuged at 3220×g for 5 min to remove any clots. The pH value was checked and recorded. Only plasma within range of pH 7.0 to pH 8.0 was used. The dialysis membrane was pretreated according to the manufacturer's instructions. Briefly, the dialysis membrane strips were soaked in ultra-pure water at room temperature for approximately 1 hr. After that, each membrane strip that contained 2 membranes was separated and soaked in ethanol:water (20:80 v:v) for approximately 20 min. The membrane was rinsed and soaked for 20 min in ultra-pure water.
Aliquots of 50 μL loading plasma (matrix) containing compound 1 or warfarin in triplicate were transferred to the appropriate wells of a sample collection plate. The samples were matched with dialysis buffer to obtain a final volume of 100 μL with a volume ratio of plasma (matrix):dialysis buffer (1:1, v:v) in each well. […]
The % Unbound, % Bound, % Recovery and % Remaining were calculated using the following equations: % Unbound=100×F/T % Bound=100−% Unbound % Recovery=100×(F+T)/T0 • F=the compound 1 concentration on the receiver side of the membrane/Correction Factor. […]

Row | Structure (SMILES) | percent inhibition relative to Stimulated of TSLP expression ([1]; FIG. 19A) | percent inhibition relative to Stimulated of IL-6 expression ([1]; FIG. 19B) | percent inhibition relative to Stimulated of MCP-1 expression ([1]; FIG. 19C) | fraction unbound at 4 h [2]
1 | C[C@H](CC/C=C/C(=O)OC(C)(C)C)O[C@@H]1O[C@@H](C)[C@H](O)C[C@H]1O [Compound 1, tert-butyl (2E,6R)-6-{[(2R,3R,5R,6S)-3,5-dihydroxy-6-methyloxan-2-yl]oxy}hept-2-enoate] | statistically significant inhibition; also recorded: robust blocking | inhibited IL-6 expression in statistically significant, dose-dependent manner | inhibited MCP-1 expression in statistically significant, dose-dependent manner | –
2 | C[C@H](CC/C=C/C(=O)O)O[C@@H]1O[C@@H](C)[C@H](O)C[C@H]1O [ascr #7, reference compound] | – | – | – | 0.946
